Measurements from EP2857388A1, “Azoles containing sulfone” (Grünenthal GmbH, priority 2013, dated 2015).

The molecules below were run against T1, human B1R (Homo sapiens, UniProt P46663) (assay: Functional assay at bradykinin receptor 1 (B1R): Ca2+ fluorescence (Fluo-4) in FLIPR/Novostar, antagonist mode). Details: test substance 10 µM; CHO K1 cells stably transfected with human B1R gene (hB1R-Zellen); agonist Lys-Des-Arg9-Bradykinin at EC80; % inhibition relative to maximal achievable inhibition.
T1 construct: expressed in transfected cells; host or cells: CHO K1 cells (Chinese Hamster Ovary), stably transfected
T1 sequence (P46663 1-353): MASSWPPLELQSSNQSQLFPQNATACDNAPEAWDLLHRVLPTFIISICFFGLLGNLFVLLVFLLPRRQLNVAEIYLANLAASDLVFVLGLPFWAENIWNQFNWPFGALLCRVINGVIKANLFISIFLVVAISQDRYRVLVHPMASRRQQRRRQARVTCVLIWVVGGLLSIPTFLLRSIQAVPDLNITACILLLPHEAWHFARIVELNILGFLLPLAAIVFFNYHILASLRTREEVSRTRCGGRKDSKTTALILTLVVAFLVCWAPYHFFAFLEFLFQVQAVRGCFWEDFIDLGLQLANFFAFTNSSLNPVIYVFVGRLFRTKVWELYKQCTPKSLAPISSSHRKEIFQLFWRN
Assay type: cell-based
Procedure, shortened: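 Antagonism read as suppression of the Ca2+ rise in Fluo-4-loaded, hB1R-transfected CHO K1 cells when Lys-Des-Arg9-bradykinin (EC80) follows a 6–20 min compound preincubation. Maximal fluorescence counts, measured on FLIPR or Novostar, yield % inhibition relative to maximum; IC50 values come from concentration series run in duplicate or triplicate.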

Row | % Inhibierung (human B1R) bei 10 µM [%] | Molecule
1 | 100 | N-[1-(4-Fluor-cyclohexyl)-3,3-dimethyl-piperidin-4-yl]-2-[3-[[(4-methoxy-2,6-dimethyl-phenyl)sulfonyl]-methyl]-[1,2,4]oxadiazol-5-yl]-acetamid [SC-48]
2 | 99 | N-[4-(Cyclopropylamino)-2,2-dimethyl-cyclohexyl]-2-[3-[[(2,3-dichlor-phenyl)sulfonyl]-methyl]-[1,2,4]oxadiazol-5-yl]-acetamid [CC-123]

Same assay, conditions: test substance 10 µM; CHO K1 cells stably transfected with human B1R gene (hB1R-Zellen); agonist Lys-Des-Arg9-Bradykinin at EC80; % inhibition relative to maximal achievable inhibition; read-out: % Inhibierung (human B1R) bei 10 µM

Row | Molecule | inhibition at 10 µM [%]
3 | COc1cc(C)c(S(=O)(=O)Cc2c(C)nn(CC(=O)N(C)[C@H]3CCC[C@@H](N4CCN(C)CC4)C3)c2C)c(C)c1 [SC-83, 2-[4-[[(4-Methoxy-2,6-dimethyl-phenyl)sulfonyl]-methyl]-3,5-dimethyl-1H-pyrazol-1-yl]-N-methyl-N-[(1S,3R)-3-(4-methyl-piperazin-1-yl)-cyclohexyl]-acetamid] | 100
4 | COc1cc(C)c(S(=O)(=O)Cc2cn(CC(=O)N(C)[C@H]3CCC[C@@H](N4CCN(C)CC4)C3)nn2)c(C)c1 [SC-84, 2-[4-[[(4-Methoxy-2,6-dimethyl-phenyl)sulfonyl]-methyl]-1H-[1,2,3]triazol-1-yl]-N-methyl-N-[(1S,3R)-3-(4-methyl-piperazin-1-yl)-cyclohexyl]-acetamid] | 100
5 | COc1cc(C)c(S(=O)(=O)Cc2noc(CC(=O)N(C)C3CCN(c4ccncc4)C(=O)C3)n2)c(C)c1 (centres unmarked) [SC-85, 2-[3-[[(4-Methoxy-2,6-dimethyl-phenyl)sulfonyl]-methyl]-[1,2,4]oxadiazol-5-yl]-N-methyl-N-(2-oxo-1-pyridin-4-yl-piperidin-4-yl)-acetamid] | 100
6 | COc1cc(C)c(S(=O)(=O)Cc2nnc(C(=O)N3CCC(CN4CCN(C)CC4)C3)o2)c(C)c1 (centres unmarked) [SC-86, [5-[[(4-Methoxy-2,6-dimethyl-phenyl)sulfonyl]-methyl]-[1,3,4]oxadiazol-2-yl]-[3-[(4-methyl-piperazin-1-yl)-methyl]-pyrrolidin-1-yl]-methanon] | 100
7 | COc1cc(C)c(S(=O)(=O)Cc2nnc(C(=O)NC3CCNCC3(C)C)o2)c(C)c1 (centres unmarked) [SC-87, N-(3,3-Dimethyl-piperidin-4-yl)-5-[[(4-methoxy-2,6-dimethyl-phenyl)sulfonyl]-methyl]-[1,3,4]oxadiazol-2-carbonsäure amid] | 98
8 | COc1cc(C)c(S(=O)(=O)Cc2cn(CC(=O)N3CCC(CN4CCN(C)CC4)C3)nn2)c(C)c1 (centres unmarked) [SC-93, 2-[4-[[(4-Methoxy-2,6-dimethyl-phenyl)sulfonyl]-methyl]-1H-[1,2,3]triazol-1-yl]-1-[3-[(4-methyl-piperazin-1-yl)-methyl]-pyrrolidin-1-yl]-ethanon] | 100

Results, then the molecule that gave them:

Row | inhibition at 10 µM [%] | Molecule
9 | 100 | COc1cc(C)c(S(=O)(=O)Cc2nc(C(=O)N3CCC(CN4CCN(C)CC4)C3)no2)c(C)c1 (centres unmarked) [SC-88, [5-[[(4-Methoxy-2,6-dimethyl-phenyl)sulfonyl]-methyl]-[1,2,4]oxadiazol-3-yl]-[3-[(4-methyl-piperazin-1-yl)-methyl]-pyrrolidin-1-yl]-methanon]
10 | 100 | COc1cc(C)c(S(=O)(=O)Cc2nc(C(=O)N(C)[C@H]3CCC[C@@H](N4CCN(C)CC4)C3)no2)c(C)c1 [SC-89, 5-[[(4-Methoxy-2,6-dimethyl-phenyl)sulfonyl]-methyl]-N-methyl-N-[(1S,3R)-3-(4-methyl-piperazin-1-yl)-cyclohexyl]-[1,2,4]oxadiazol-3-carbonsäure amid]
11 | 90 | COc1cc(C)c(S(=O)(=O)Cc2c(C)nn(CC(=O)N3CCC(CN4CCN(C)CC4)C3)c2C)c(C)c1 (centres unmarked) [SC-92, 2-[4-[[(4-Methoxy-2,6-dimethyl-phenyl)sulfonyl]-methyl]-3,5-dimethyl-1H-pyrazol-1-yl]-1-[3-[(4-methyl-piperazin-1-yl)-methyl]-pyrrolidin-1-yl]-ethanon]
